# From US8853282B1, “Topical liquid insecticide compositions” (priority 2014, dated 2014)
# Experiments:
# [1] = cited from earlier work
# ticks = conditions: cited from earlier work
# fleas = conditions: cited from earlier work
# felines = conditions: cited from earlier work
# [2] = Solubility in aprotic polar solvents; assay type: physicochemical
# From the text: Dinotefuran is a hydrophilic compound that will dissolve in water (approx. 40 g/L). While dinotefuran is most preferred, nitenpyram is highly hydrophilic and could be used in formulations where higher levels of neo-nicotinoid would be desirable. The ether pyrethroid etofenprox will dissolve in some aprotic polar solvents to provide up to 40-60 weight percent while most ester pyrethroids had little solubility. Other ether pyrethroids may be useful provided they have insecticidal activity and may be desirable because of cost and relatively low hydrophobicity.
SMILES,Water Solubility [1] [mg/mL],kill of ticks (ticks),kill of fleas (fleas),dissolve in water [1],solubility in water [1] [mg/mL],toxicity to felines (felines),dissolves in some aprotic polar solvents [2]
C/C(=N\C#N)N(C)Cc1ccc(Cl)nc1 [Acetamiprid],2.95,–,–,–,–,–,–
CN/C(=N/CC1CCOC1)N[N+](=O)[O-] (centres unmarked) [Dinotefuran],39.83,not ticks,will kill fleas,approx. 40 g/L,–,–,–
CCOc1ccc(C(C)(C)COCc2cccc(Oc3ccccc3)c2)cc1 [Etofenprox],–,will kill both fleas and ticks,will kill both fleas and ticks,–,0.001,not toxic to felines,40-60 weight percent
CCN(Cc1ccc(Cl)nc1)/C(=C/[N+](=O)[O-])NC [Nitenpyram],840,–,–,–,–,–,–
